In PMC7101356, “Cross-site and cross-platform variability of automated patch clamp assessments of drug effects on human cardiac currents in recombinant cells” (Scientific Reports, 2020):
Like-named read-outs stand apart in the source and are kept apart here.

Key:
peak hNav1.5 = molecular target: T1, peak hNav1.5 (Homo sapiens, UniProt Q14524); experiment: Automated patch clamp, peak hNav1.5 current block; type: cell-based
T1 construct: expressed in transfected cells; host or cells: HEK293 or CHO, depending on site

late hNav1.5 = molecular target: T2, late hNav1.5 (Homo sapiens, UniProt Q14524); experiment: Automated patch clamp, late hNav1.5 current block (ATX-II activated); type: cell-based
T2 construct: expressed in transfected cells; host or cells: HEK293 or CHO, depending on site

[1] = based on CiPA evaluations; cited from earlier work
hCav1.2 = hCav1.2 (Homo sapiens, UniProt Q13936); experiment: Automated patch clamp, hCav1.2 current block
hERG = hERG (Homo sapiens, UniProt Q12809); experiment: Automated patch clamp, hERG current block (consensus step-ramp protocol); settings: human, hERG K+ current inhibition, Mean, 1.00E-08 mol/L
[2] = site_platform s06_p4, 1.00E-08 mol/L
[3] = site_platform s06_p4, 3.00E-07 mol/L
[4] = site_platform s07_p6, 1.00E-08 mol/L
[5] = site_platform s07_p6, 3.00E-07 mol/L
[6] = site_platform s13_p2, 1.00E-08 mol/L
[7] = site_platform s13_p2, 3.00E-07 mol/L
[8] = site_platform s14_p1, 1.00E-08 mol/L
[9] = site_platform s14_p1, 3.00E-07 mol/L

T1 sequence (Q14524 whole entry): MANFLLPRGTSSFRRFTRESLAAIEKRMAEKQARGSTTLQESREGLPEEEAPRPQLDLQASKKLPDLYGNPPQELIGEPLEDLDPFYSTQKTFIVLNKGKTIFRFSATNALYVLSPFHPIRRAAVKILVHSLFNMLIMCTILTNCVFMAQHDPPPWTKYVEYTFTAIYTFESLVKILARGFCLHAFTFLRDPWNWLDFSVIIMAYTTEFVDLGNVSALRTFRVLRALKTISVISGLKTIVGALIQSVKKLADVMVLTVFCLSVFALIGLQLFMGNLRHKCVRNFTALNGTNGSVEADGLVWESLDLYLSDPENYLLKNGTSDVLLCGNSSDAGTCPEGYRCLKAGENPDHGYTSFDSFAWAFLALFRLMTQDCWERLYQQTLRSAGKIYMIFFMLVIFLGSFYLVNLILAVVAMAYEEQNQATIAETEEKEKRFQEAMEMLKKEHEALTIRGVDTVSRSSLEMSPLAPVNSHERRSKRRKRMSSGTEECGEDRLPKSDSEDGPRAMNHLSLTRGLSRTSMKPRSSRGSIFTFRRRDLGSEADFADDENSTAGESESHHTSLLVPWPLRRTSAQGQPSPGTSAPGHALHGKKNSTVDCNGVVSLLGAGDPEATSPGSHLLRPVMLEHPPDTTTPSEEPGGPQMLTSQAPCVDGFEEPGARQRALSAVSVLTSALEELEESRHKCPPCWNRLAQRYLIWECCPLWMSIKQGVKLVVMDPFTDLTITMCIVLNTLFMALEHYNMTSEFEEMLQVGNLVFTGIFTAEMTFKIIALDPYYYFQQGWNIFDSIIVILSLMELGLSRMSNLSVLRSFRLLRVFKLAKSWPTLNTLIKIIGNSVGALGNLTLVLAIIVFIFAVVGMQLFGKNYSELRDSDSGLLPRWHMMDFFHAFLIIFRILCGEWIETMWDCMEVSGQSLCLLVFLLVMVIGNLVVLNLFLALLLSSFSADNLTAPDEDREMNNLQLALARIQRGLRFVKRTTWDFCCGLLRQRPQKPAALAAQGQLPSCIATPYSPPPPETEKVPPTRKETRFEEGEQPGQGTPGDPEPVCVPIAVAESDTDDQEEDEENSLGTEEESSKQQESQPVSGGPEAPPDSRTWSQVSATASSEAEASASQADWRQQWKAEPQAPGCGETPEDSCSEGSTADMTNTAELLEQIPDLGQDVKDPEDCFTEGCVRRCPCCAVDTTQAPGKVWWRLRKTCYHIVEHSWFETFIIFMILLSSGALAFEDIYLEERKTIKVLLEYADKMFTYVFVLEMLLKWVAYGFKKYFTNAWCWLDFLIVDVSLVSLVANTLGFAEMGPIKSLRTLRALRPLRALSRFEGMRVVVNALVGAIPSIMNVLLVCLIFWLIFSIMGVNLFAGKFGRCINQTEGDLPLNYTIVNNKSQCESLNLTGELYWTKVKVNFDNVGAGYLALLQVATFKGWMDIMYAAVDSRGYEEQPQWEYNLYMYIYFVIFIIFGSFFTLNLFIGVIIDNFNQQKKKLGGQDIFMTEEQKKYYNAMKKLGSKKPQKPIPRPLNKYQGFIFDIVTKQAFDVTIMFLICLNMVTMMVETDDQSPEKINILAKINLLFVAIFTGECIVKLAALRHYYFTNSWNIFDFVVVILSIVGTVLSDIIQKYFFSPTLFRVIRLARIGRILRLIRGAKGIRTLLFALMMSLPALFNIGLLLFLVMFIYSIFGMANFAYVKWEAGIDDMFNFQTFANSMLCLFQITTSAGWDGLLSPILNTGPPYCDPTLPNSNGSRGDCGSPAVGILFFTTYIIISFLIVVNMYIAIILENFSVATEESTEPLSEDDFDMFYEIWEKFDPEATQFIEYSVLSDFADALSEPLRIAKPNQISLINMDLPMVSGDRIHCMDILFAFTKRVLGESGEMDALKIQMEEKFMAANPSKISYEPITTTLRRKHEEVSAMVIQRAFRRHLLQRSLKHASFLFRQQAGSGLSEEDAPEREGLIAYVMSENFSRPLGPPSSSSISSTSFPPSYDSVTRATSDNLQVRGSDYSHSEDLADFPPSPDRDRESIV
T2 sequence (Q14524 whole entry): as above

## CC(C)COCC(CN(Cc1ccccc1)c1ccccc1)N1CCCC1 (stereo not drawn) [bep, bepridil]
Peak hNav1.5
  IC50: 2450 nM
Peak hNav1.5; site_platform s01_p1
  log IC50, peak hNav1.5 Na+ current inhibition: no inh.
Peak hNav1.5; site_platform s01_p1, 1.00E-08 mol/L
  Peak hNav1.5 Na+ current inhibition, Mean: 27.2%
Peak hNav1.5; site_platform s01_p1, 3.00E-07 mol/L
  Peak hNav1.5 Na+ current inhibition, Mean: 49.4%
Peak hNav1.5; site_platform s02_p2
  log IC50, peak hNav1.5 Na+ current inhibition: no inh.
Peak hNav1.5; site_platform s02_p2, 1.00E-08 mol/L
  Peak hNav1.5 Na+ current inhibition, Mean: 0.5%
Peak hNav1.5; site_platform s02_p2, 3.00E-07 mol/L
  Peak hNav1.5 Na+ current inhibition, Mean: 5.1%
Peak hNav1.5; site_platform s04_p3
  log IC50, peak hNav1.5 Na+ current inhibition: no inh.
Peak hNav1.5; site_platform s04_p3, 1.00E-08 mol/L
  Peak hNav1.5 Na+ current inhibition, Mean: 7.9%
Peak hNav1.5; site_platform s04_p3, 3.00E-07 mol/L
  Peak hNav1.5 Na+ current inhibition, Mean: 13.7%
Peak hNav1.5; site_platform s06_p4
  log IC50, peak hNav1.5 Na+ current inhibition: no inh.
Peak hNav1.5; [2]
  Peak hNav1.5 Na+ current inhibition, Mean: -6.3%
Peak hNav1.5; [3]
  Peak hNav1.5 Na+ current inhibition, Mean: 0.9%
Peak hNav1.5; site_platform s07_p6
  log IC50, peak hNav1.5 Na+ current inhibition: no inh.
Peak hNav1.5; [4]
  Peak hNav1.5 Na+ current inhibition, Mean: -3.3%
Peak hNav1.5; [5]
  Peak hNav1.5 Na+ current inhibition, Mean: -0.6%
Peak hNav1.5; site_platform s10_p3
  nH, Hill slope, peak hNav1.5 inhibition: 0.57
Peak hNav1.5; site_platform s10_p3, 1.00E-08 mol/L
  Peak hNav1.5 Na+ current inhibition, Mean: 3.5%
Peak hNav1.5; site_platform s10_p3, 3.00E-07 mol/L
  Peak hNav1.5 Na+ current inhibition, Mean: 22.0%
Peak hNav1.5; site_platform s10_p3, read-out: log IC50, peak hNav1.5 inhibition (converted)
  IC50: 2690 nM
Peak hNav1.5; site_platform s11_p1
  log IC50, peak hNav1.5 inhibition: no inh.
Peak hNav1.5; site_platform s11_p1, 1.00E-08 mol/L
  Peak hNav1.5 Na+ current inhibition, Mean: 4.3%
Peak hNav1.5; site_platform s11_p1, 3.00E-07 mol/L
  Peak hNav1.5 Na+ current inhibition, Mean: 10.4%
Peak hNav1.5; site_platform s12_p2
  log IC50, peak hNav1.5 inhibition: no inh.
Peak hNav1.5; site_platform s12_p2, 1.00E-08 mol/L
  Peak hNav1.5 Na+ current inhibition, Mean: 0.0%
Peak hNav1.5; site_platform s12_p2, 3.00E-07 mol/L
  Peak hNav1.5 Na+ current inhibition, Mean: 0.0%
Peak hNav1.5; site_platform s13_p2
  log IC50, peak hNav1.5 inhibition: no inh.
Peak hNav1.5; [6]
  Peak hNav1.5 Na+ current inhibition, Mean: 3.2%
Peak hNav1.5; [7]
  Peak hNav1.5 Na+ current inhibition, Mean: 6.7%
Peak hNav1.5; site_platform s14_p1
  nH, Hill slope, peak hNav1.5 inhibition: 0.78
Peak hNav1.5; [8]
  Peak hNav1.5 Na+ current inhibition, Mean: 6.0%
Peak hNav1.5; [9]
  Peak hNav1.5 Na+ current inhibition, Mean: 17.8%
Peak hNav1.5; site_platform s15_p1
  nH, Hill slope, peak hNav1.5 inhibition: 0.68
Peak hNav1.5; site_platform s15_p1, 1.00E-08 mol/L
  Peak hNav1.5 Na+ current inhibition, Mean: 13.5%
Peak hNav1.5; site_platform s15_p1, 3.00E-07 mol/L
  Peak hNav1.5 Na+ current inhibition, Mean: 51.4%
Peak hNav1.5; site_platform s15_p1, read-out: log IC50, peak hNav1.5 inhibition (converted)
  IC50: 324 nM
Peak hNav1.5; site_platform s16_p3
  nH, Hill slope, peak hNav1.5 inhibition: 0.36
Peak hNav1.5; site_platform s16_p3, 1.00E-08 mol/L
  Peak hNav1.5 Na+ current inhibition, Mean: 8.1%
Peak hNav1.5; site_platform s16_p3, 3.00E-07 mol/L
  Peak hNav1.5 Na+ current inhibition, Mean: 26.6%
Peak hNav1.5; site_platform s16_p3, read-out: log IC50, peak hNav1.5 inhibition (converted)
  IC50: 4470 nM
Peak hNav1.5; site_platform s17_p1
  nH, Hill slope, peak hNav1.5 inhibition: 1.09
Peak hNav1.5; site_platform s17_p1, 1.00E-08 mol/L
  Peak hNav1.5 Na+ current inhibition, Mean: 2.7%
Peak hNav1.5; site_platform s17_p1, 3.00E-07 mol/L
  Peak hNav1.5 Na+ current inhibition, Mean: 30.0%
Peak hNav1.5; site_platform s17_p1, read-out: log IC50, peak hNav1.5 inhibition (converted)
  IC50: 676 nM
Peak hNav1.5; site_platform s18_p1
  log IC50, peak hNav1.5 inhibition: no inh.
Peak hNav1.5; site_platform s18_p1, 1.00E-08 mol/L
  Peak hNav1.5 Na+ current inhibition, Mean: 54.7%
Peak hNav1.5; site_platform s18_p1, 3.00E-07 mol/L
  Peak hNav1.5 Na+ current inhibition, Mean: 68.5%
Peak hNav1.5; site_platform s19_p3
  nH, Hill slope, peak hNav1.5 inhibition: 0.50
Peak hNav1.5; site_platform s19_p3, 1.00E-08 mol/L
  Peak hNav1.5 Na+ current inhibition, Mean: 2.2%
Peak hNav1.5; site_platform s19_p3, 3.00E-07 mol/L
  Peak hNav1.5 Na+ current inhibition, Mean: 17.3%
Peak hNav1.5; site_platform s19_p3, read-out: log IC50, peak hNav1.5 inhibition (converted)
  IC50: 6920 nM
Late hNav1.5; site_platform s06_p4
  nH, Hill slope, late hNav1.5 inhibition: 1.86
Late hNav1.5; [2]
  Late hNav1.5 Na+ current inhibition, Mean: -0.5%
Late hNav1.5; [3]
  Late hNav1.5 Na+ current inhibition, Mean: 43.7%
Late hNav1.5; site_platform s06_p4, read-out: log IC50, late hNav1.5 inhibition (converted)
  IC50: 363 nM
Late hNav1.5; site_platform s07_p6
  log IC50, late hNav1.5 inhibition: no inh.
Late hNav1.5; [4]
  Late hNav1.5 Na+ current inhibition, Mean: 5.5%
Late hNav1.5; [5]
  Late hNav1.5 Na+ current inhibition, Mean: 12.3%
Late hNav1.5; site_platform s13_p2
  log IC50, late hNav1.5 inhibition: no inh.
Late hNav1.5; [6]
  Late hNav1.5 Na+ current inhibition, Mean: 24.3%
Late hNav1.5; [7]
  Late hNav1.5 Na+ current inhibition, Mean: 29.9%
Late hNav1.5; site_platform s14_p1
  log IC50, late hNav1.5 inhibition: no inh.
Late hNav1.5; [8]
  Late hNav1.5 Na+ current inhibition, Mean: 54.2%
Late hNav1.5; [9]
  Late hNav1.5 Na+ current inhibition, Mean: 10.2%
[1]
  TdP Risk Category: High
hCav1.2; site s01_p1, 1.00E-08 mol/L
  Peak hCav1.2 Ca2+ current inhibition, Mean: 5.6%
hCav1.2; site s01_p1, 3.00E-07 mol/L
  Peak hCav1.2 Ca2+ current inhibition, Mean: 16.7%
hCav1.2; site s02_p2, corrected for rundown
  nH, Hill slope: 0.64
hCav1.2; site s02_p2, corrected for rundown, 1.00E-08 mol/L
  Peak hCav1.2 Ca2+ current inhibition, Mean: 4.4%
hCav1.2; site s02_p2, corrected for rundown, 3.00E-07 mol/L
  Peak hCav1.2 Ca2+ current inhibition, Mean: 34.4%
hCav1.2; site s04_p3, 1.00E-08 mol/L
  Peak hCav1.2 Ca2+ current inhibition, Mean: 12.6%
hCav1.2; site s04_p3, 3.00E-07 mol/L
  Peak hCav1.2 Ca2+ current inhibition, Mean: 17.5%
hCav1.2; site s06_p4, 1.00E-08 mol/L
  Peak hCav1.2 Ca2+ current inhibition, Mean: 5.9%
hCav1.2; site s06_p4, 3.00E-07 mol/L
  Peak hCav1.2 Ca2+ current inhibition, Mean: 13.9%
hCav1.2; site s11_p1, 1.00E-08 mol/L
  Peak hCav1.2 Ca2+ current inhibition, Mean: 13.2%
hCav1.2; site s11_p1, 3.00E-07 mol/L
  Peak hCav1.2 Ca2+ current inhibition, Mean: 21.4%
hCav1.2; site s14_p1, 1.00E-08 mol/L
  Peak hCav1.2 Ca2+ current inhibition, Mean: -0.1%
hCav1.2; site s14_p1, 3.00E-07 mol/L
  Peak hCav1.2 Ca2+ current inhibition, Mean: 8.2%
hCav1.2; site s16_p3
  nH, Hill slope: 0.51
hCav1.2; site s16_p3, 1.00E-08 mol/L
  Peak hCav1.2 Ca2+ current inhibition, Mean: 8.6%
hCav1.2; site s16_p3, 3.00E-07 mol/L
  Peak hCav1.2 Ca2+ current inhibition, Mean: 45.8%
hCav1.2; site s18_p1, 1.00E-08 mol/L
  Peak hCav1.2 Ca2+ current inhibition, Mean: 28.2%
hCav1.2; site s18_p1, 3.00E-07 mol/L
  Peak hCav1.2 Ca2+ current inhibition, Mean: 31.3%
hERG; site_platform s07_p5
  inhibition at 1e-08 mol/L: 0.5%
hERG; site_platform s10_p3
  inhibition at 4 min, 1e-08 mol/L: 1.5%
hERG; site_platform s11_p1
  inhibition at 7 min, 1e-08 mol/L: 12%
hERG; site_platform s14_p1
  inhibition at 7 min, 1e-08 mol/L: 41.9%
